Values joined by “and” are separate entries in the source; they are usually repeats but may differ in a detail not shown here. Equal values may be shown once.
Columns and labels:
Format in all cases: in vivo
[1] = system: large crabgrass (DIGSA, Digitaria sanguinalis); experiment: Greenhouse postemergence herbicidal effect; conditions: for Obs % visual injury: DIGSA
Excerpt: (§1) Seeds of the desired test plant species were planted in a 90:10% v/v (volume/volume) mixture of PRO-MIX® BX (Premier Tech Horticulture, Quakertown, PA, USA) and PROFILE® GREENS GRADE™ (Profile Products LLC, Buffalo Grove, IL, USA) planting mixture, which typically has a pH of 5.2 to 6.2 and an organic matter content of at least 50 percent, in plastic pots with a surface area of 103.2 square centimeters (cm^2). In some aspects, to ensure good germination and healthy plants, a fungicide treatment and/or other chemical or physical treatment was applied. The plants were grown for 7-36 days (d) in a greenhouse with an approximate 14-hour (h) photo-period which was maintained at about 23° C. during the day and 22° C. during the night. Nutrients and water were added on a regular basis and supplemental lighting was provided with overhead metal halide 1000-Watt lamps as necessary. The plants were employed for testing when they reached the second or third true leaf stage.
(§2) Emulsifiable concentrates of each of each pyridine carboxylate herbicide (Compound A or Compound B) were prepared at 100 grams acid equivalent per liter (g ae/L). The emulsifiable concentrates also included a safener, cloquintocet-mexyl, at 120 grams active ingredient per liter (g ai/L), unless otherwise noted below. An aliquot of each emulsifiable concentrate was placed in a 25 mL glass vial and diluted with an aqueous mixture of 1.25% (v/v) ACTIROB® B esterified rapeseed oil (Bayer Crop Science, Research Triangle Park, NC, USA) or MSO® Concentrate with LECI-TECH® methylated soybean oil (Loveland Products, Loveland, CO, USA) to obtain concentrated stock solutions at the highest application rate for each herbicide, based upon a 12 milliliter (mL) application volume at a rate of 187 liters per hectare (L/ha). The concentrated stock solutions were further diluted with an aqueous mixture of 1.25% v/v ACTIROB® B or MSO® Concentrate with LECI-TECH® to obtain stock solutions at reduced application rates for each herbicide. Spray solutions of the herbicide combinations (Compound A or Compound B plus ALS herbicide) were prepared by adding weighed amounts or aliquots of the ALS herbicides to the stock solutions of Compound A or Compound B to form 12-mL spray solutions in two- or three-way combinations.
(§3) The spray solutions were applied to the plant material with an overhead Mandel track sprayer equipped with 8002E nozzles calibrated to deliver 187 L/ha over an application area of 0.503 square meters (m^2) at a spray height of 18 inches (43 centimeters (cm)) above the average plant canopy. Control plants were sprayed in the same manner with the solvent blank. All pyridine carboxylate herbicide (component a) application rates are given as “g ae/ha” and all ALS inhibitor (component b) application rates are given as “g ai/ha.”
(§4) The treated plants and control plants were placed in a greenhouse as described above and watered by sub-irrigation to prevent wash-off of the test compounds. After 20-22 d, the condition of the test plants as compared with that of the control plants was determined visually and scored on a scale of 0 to 100 percent where 0 corresponds to no injury and 100 corresponds to complete kill.

[2] = system: broad-leaf dock (RUMOB, Rumex obtusifolius); experiment: Greenhouse postemergence herbicidal effect; conditions: for Obs % visual injury: RUMOB
Excerpt: as §1, §2, §3, §4

[3] = system: ivyleaf morningglory (IPOHE, Ipomoea hederacea); experiment: Greenhouse postemergence herbicidal effect
Excerpt: as §1, §2, §3, §4

[4] = system: soybean (GLXMA, Glycine max); experiment: Greenhouse postemergence herbicidal effect
Excerpt: as §1, §2, §3, §4

[5] = system: velvetleaf (ABUTH, Abutilon theophrasti); experiment: Greenhouse postemergence herbicidal effect
Excerpt: as §1, §2, §3, §4

[6] = system: common sunflower (HELAN, Helianthus annuus); experiment: Greenhouse postemergence herbicidal effect
Excerpt: as §1, §2, §3, §4

[7] = system: giant foxtail (SETFA, Setaria faberi); experiment: Greenhouse postemergence herbicidal effect
Excerpt: as §1, §2, §3, §4

[8] = system: barnyard grass (ECHCG, Echinochloa crus-galli); experiment: Greenhouse postemergence herbicidal effect; conditions: Compound A 10 g/ha
Excerpt: as §1, §2, §3, §4

[9] = system: annual ryegrass (LOLMG=Lolium multiflorum subsp. gaudini); experiment: Greenhouse postemergence herbicidal effect; conditions: 10 g/ha
Excerpt: as §1, §2, §3, §4

[10] = system: spring rape (BRSNN, Brassica napus); experiment: Greenhouse postemergence herbicidal effect
Procedure, shortened: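 Injury was rated visually after 20-22 d on a 0 (none) to 100% (complete kill) scale relative to solvent-sprayed controls, with sub-irrigation to avoid wash-off. Rates were given in g ae/ha or g ai/ha depending on component.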

maize (ZEAMX, Zea mays) = experiment: Greenhouse postemergence crop phytotoxicity; conditions: Compound A 10 g/ha; safener mefenpyr-diethyl
Protocol: as §1, with “In some aspects, to ensure good germination and healthy plants, a fungicide treatment and/or other chemical or physical treatment was applied.” left out
as §2, with “combinations. […]” for “combinations.”
as §4

[11] = system: rice (ORYSA, Oryza sativa); experiment: Greenhouse postemergence crop phytotoxicity; conditions: Compound A 10 g/ha; safener mefenpyr-diethyl
Protocol: as §1, with “In some aspects, to ensure good germination and healthy plants, a fungicide treatment and/or other chemical or physical treatment was applied.” left out
as §2, with “combinations. […]” for “combinations.”
as §4

[12] = Compound A 10 g/ha, safener mefenpyr-diethyl

In the case of `C#CCOC(=O)c1nc(-c2ccc3cc[nH]c3c2F)c(F)c(N)c1Cl` [Compound B, propargyl 4-amino-3-chloro-5-fluoro-6-(7-fluoro-1H-indol-6-yl)pyridine-2-carboxylate], the “Obs % visual injury” value ([1]; Compound B 5 g/ha) is reported as 50%, the “Obs % visual injury” value ([1]; Compound B 10 g/ha) is reported as 63% and the “% visual injury, Obs” value ([2]; 10 g/ha) is reported as 15%. For the same compound, the “Obs % visual injury” value ([2]; Compound B 5 g/ha) was 23%, the “Obs % visual injury” value ([2]; Compound B 10 g/ha) was 18% and the “% visual injury, Obs” value ([3]; 10 g/ha) was 0%. The “% visual injury, Obs” value ([4]; 10 g/ha) was 73%, the “% visual injury, Obs” value ([5]; 10 g/ha) was 68% and the “% visual injury, Obs” value ([6]; 10 g/ha) was 100%.
In the case of `N#CCOC(=O)c1nc(-c2ccc3cc[nH]c3c2F)c(F)c(N)c1Cl` [Compound A, cyanomethyl 4-amino-3-chloro-5-fluoro-6-(7-fluoro-1H-indol-6-yl)pyridine-2-carboxylate], the “% visual injury, Obs” value ([1]; 10 g/ha) is reported as 0%, the “% visual injury, Obs” value [1, 12] is reported as 10% and the “DIGSA % visual injury Obs” value [1, 12] is reported as 10%. The “% visual injury, Obs” value [2, 12] was 20%, the “RUMOB % visual injury Obs” value [2, 12] was 20% and the “% visual injury” value ([3]; Compound A 10 g/ha) was 25%. For the same compound, the “% visual injury, Obs” value [3, 12] was 5%, the “IPOHE % visual injury Obs” value [3, 12] was 5% and the “% visual injury, Obs” value [4, 12] was 95%. For the same compound, the “GLXMA % visual injury Obs” value [4, 12] was 95%, the “% visual injury, Obs” value ([7]; 10 g/ha) was 0% and the “% visual injury, Obs” value [7, 12] was 80%. The “SETFA % visual injury Obs” value [7, 12] was 80%, the “% visual injury, Obs” value ([5]; 10 g/ha) was 48% and the “% visual injury, Obs” value [5, 12] was 73%. The “ABUTH % visual injury Obs” value [5, 12] was 73%, the “% visual injury Obs” value [8] was 85% and the “% visual injury, Obs” value ([8]; safener mefenpyr-diethyl) was 85%. The “ECHCG % visual injury Obs” value ([8]; safener mefenpyr-diethyl) was 85%, the “% visual injury, Obs” value [9] was 3% and the “% visual injury” value ([6]; Compound A 10 g/ha) was 89%. For the same compound, the “% visual injury, Obs” value [6, 12] was 98%, the “HELAN % visual injury Obs” value [6, 12] was 98% and the “% visual injury, Obs” value ([10]; 10 g/ha) was 73% and 70% and 60%. The “% visual injury, Obs” value ([10]; BRSNN, Compound A 10 g/ha) was 60%, the “Obs % visual injury” value ([10]; BRSNN, Compound A 10 g/ha) was 55% and the “Obs % visual injury” value ([10]; BRSNN, Compound A 10 g/ha (Table 65)) was 55%. The “% visual injury” value ([10]; Compound A 10 g/ha) was 65%, the “% visual injury Obs” value ([10]; Compound A 10 g/ha) was 60% and the “% visual injury, Obs” value ([10]; Compound A 10 g/ha) was 55%. For the same compound, the “BRSNN % visual injury Obs” value ([10]; Compound A 10 g/ha (Examples 62-63)) was 55%, the “% visual injury, Obs” value [10, 12] was 78% and the “BRSNN % visual injury Obs” value [10, 12] was 78%. For the same compound, the “% visual injury, Obs” value (maize (ZEAMX, Zea mays)) was 5%, the “ZEAMX % visual injury Obs” value (maize (ZEAMX, Zea mays)) was 5% and the “% visual injury, Obs” value [11] was 5%. For the same compound, the “ORYSA % visual injury Obs” value [11] was 5%.

Source: patent publication US12285012B2, “Compositions comprising pyridine carboxylate herbicides with acetolactate synthase (ALS) inhibitor herbicides” (Corteva Agriscience LLC, priority 2018, dated 2025)
